The values that follow come from publication PMC6041393, “A Mechanistic Model for Predicting Cell Surface Presentation of Competing Peptides by MHC Class I Molecules” (Frontiers in Immunology, 2018).

One test concerns B44:02. The arrangement: method as in PMID 26375851. The following applies: B lymphoblastoid cell lines; cited from earlier work.
In the next test the test system is E10 Fab. Put plainly: E10 Fab surface staining of peptide-pulsed RMA-S cells (flow cytometry). The class given is binding. The following applies: flow cytometry surface staining of RMA-S cells pulsed with peptides. (In general: Flow cytometry measures light scatter and fluorescence of single cells or particles in a stream.)
The target in test [1] is T1, H-2Db (Mus musculus, UniProt P01899).
T1 sequence (P01899 25-362): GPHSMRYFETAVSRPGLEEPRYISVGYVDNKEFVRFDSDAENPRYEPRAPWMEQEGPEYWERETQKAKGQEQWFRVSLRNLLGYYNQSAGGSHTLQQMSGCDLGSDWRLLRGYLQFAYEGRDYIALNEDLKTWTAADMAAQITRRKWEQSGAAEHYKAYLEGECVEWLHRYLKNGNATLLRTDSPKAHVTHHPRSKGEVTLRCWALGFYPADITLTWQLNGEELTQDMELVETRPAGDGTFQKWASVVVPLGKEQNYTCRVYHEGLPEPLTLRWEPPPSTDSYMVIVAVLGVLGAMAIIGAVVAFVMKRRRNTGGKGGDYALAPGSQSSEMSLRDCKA
T1 sequence (P01887 21-119 partner): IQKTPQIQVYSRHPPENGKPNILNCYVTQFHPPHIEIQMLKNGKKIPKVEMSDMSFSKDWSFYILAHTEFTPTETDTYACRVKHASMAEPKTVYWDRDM
Put plainly: Brefeldin A (BFA) decay assay of pMHC complexes at the cell surface. It is filed as cell-based. More on the design: endogenous in cells; host or cells: RMA-S (TAP2-deficient mouse T cell line). The following applies: for t1/2 (peptide half-life of pMHC complex): BFA decay assay, RMA-S cells kept overnight at 26°C, pulsed with 20 μM peptide 1 h at 26°C, BFA added, decay at 37°C, B22 anti-H-2Db staining, flow cytometry, exponential fit; for Off-rates: converted from BFA decay half-life as log(2)/half-life (s). As to the method: Dissociation of pMHC complexes at the cell surface was assessed by BFA decay assay as described previously ([17]). RMA-S cells were incubated overnight at 26°C to maximize MHC-I surface expression. After being washed, 5 × 10^5 cells per well of a 96-U-bottom plate were pulsed, at different time intervals, with peptides (final concentration of 20 μM) for 1 h at 26°C. After washing with medium, de novo transport of MHC-I to the cell surface was blocked by the addition of BFA, and peptide-loaded RMA-S cells were incubated at 37°C to allow decay of unstable molecules. Cells were washed in FACS buffer and stained with B22 primary monoclonal Abs (conformation sensitive anti-H-2Db MAb) and goat anti-mouse IgG-PE secondary Abs (Abcam, Cambridge, UK) to detect peptide-loaded MHC-I molecules. Samples were analyzed by flow cytometry on a Fortessa X20 flow cytometer (BD, Oxford, UK), and data were analyzed with the Diva software. MFI values were background deducted by subtracting the MFI value obtained in the DMSO control at the last time point. Half-lives and off-rate constants were then determined by fitting the curves using an exponential trend line in the Excel software (Microsoft, USA).
We experimentally measured the stability of pMHC complexes by following their decay from the cell surface over time (“BFA decay assay” in Figure 2A), and used these measurements to calculate the corresponding unbinding rates of the peptides from MHC (Table 1; Figure S3 in Supplementary Material). Finally, to incorporate the effect of IFNγ into the model, we specified a new parameter (γ) that quantifies the increased supply of MHC and tapasin following IFNγ treatment.

The target in test [2] is T1, H-2Db. Kind of test: pMHC competition assay in co-transfected B6 fibroblasts; surface pMHC quantified with Qifikit beads, cytoplasmic peptide with mCherry beads. It is filed as cell-based. The following applies: for surface expression of ASN variant–H2Db: IFNγ-treated fibroblasts, E10 Fab staining; for change of surface expression of peptide–H2Db complexes with IFNγ: fibroblasts treated with IFNγ for 48 h versus untreated; for number of pMHC complexes presented on the cell surface: untreated fibroblasts, 1C3 Mab, Qifikit calibration beads. As to the method: Fibroblasts were seeded at 2 × 10^5 cells per 6 cm diameter Petri dish. When IFNγ treatment was applied, 1 µg of mouse IFNγ (Peprotech, Rocky Hill, USA) was added per Petri dish 4 h after seeding. Cells were transfected the following day with TransIT-LT1 (Mirus, Madison, USA) following the manufacturer’s recommendations using 2.5 µg of each Venus-Ub-peptide and mCherry-Ub-peptide constructs. 1 day after transfection cells were stained for 45 min on ice with primary reagents, 1C3 hybrid Mab neat supernatant, E10 purified Fab, B22, or Y3 purified Mabs to detect surface pMHC complexes. After washing, cells were incubated for 45 min with AF647-conjugated goat anti-human IgG (used after Fab primary) or goat anti-mouse (after mouse antibodies including 1C3) (Invitrogen/Molecular Probes, Eugene, USA). Flow cytometry was performed using a Fortessa X20 cytometer (BD) and the data were analyzed using FACS Diva software (BD).
mCherry flow cytometry calibration beads (Clontech/Takara, USA) were used, as recommended by the manufacturer, to calibrate the amount of mCherry molecules, equivalent to the number of peptide molecules expressed in the transfected cells. Beads were run through the flow cytometer using the same setup as for acquiring cells.
The number of […]-H2Db complexes presented on the cell surface was estimated using Qifikit beads (Dako, Glostrup, Denmark). Beads were treated as recommended by the manufacturer but stained with AF647-conjugated goat anti-mouse IgG (Invitrogen) at the same dilution as used to detect the 1C3 Mab on transfected cells. A calibration curve was drawn by plotting the MFI of the 5 peaks (x-axis) versus the lot-specific numbers of antibody molecules per bead (y-axis). The curve was then used to calculate the number of […]-H2Db complexes presented on the cell surface expressed in antibody-binding capacity units (number of primary mouse monoclonal antibodies per cell).
To establish how variation in the intracellular abundance of competing peptides influences cell surface presentation, we developed an assay in which intracellular peptide supply and pMHC cell surface abundance could be measured simultaneously (Figure 1A), assay adapted from Ref. ([35]). Furthermore, this method measures the abundance of peptides actually presented at the surface of living cells and not, as for quantitative high-throughput methods, the abundance of peptides remaining bound to MHC after biochemical purification of pMHC I complexes from cell lysates. Two fluorescent fusion proteins, Venus-ubiquitin-[…] (faster off-rate, see Table 1) and mCherry-ubiquitin-[…] (slower off-rate) are co-expressed in fibroblasts. Once expressed in the cytoplasm, the fusion proteins are cleaved by endogenous cytoplasmic ubiquitin hydrolases, releasing the peptides at an equimolecular ratio to their respective fluorescent reporter protein (Figure 1A) that can be quantified by flow cytometry ([36]) (Figure S1 in Supplementary Material). Using this system, the generation of peptides bypasses the proteasome. After translocation into the ER, peptides compete for loading onto MHC-I molecules and are transported to the cell surface where they can be quantified by flow cytometry (Figure 1A). Both fusion proteins were naturally expressed at a broad range of concentrations after transient transfection, allowing in a single experiment to compare peptide surface presentation in cells expressing low to high levels of both fusion proteins (Figure 1B). To analyze competition between both peptides, cells were partitioned into different gates according to their expression level of mCherry, reporter for the level of expression of […], and Venus, reporter for the level of […] (Figure 1B). Competition was then assessed by plotting surface expression of […]-H2Db as a function of increasing cytoplasmic expression of the […] target peptide for increasing levels of competing peptide (Venus levels 1–7 in Figure 1B). […]

Another test addresses H-2Dd (Mus musculus, UniProt P01900). The following applies: H-2Dd binding CT26 epitope; cited from earlier work.
The next test deals with NIT-1 insulinoma cells. The following applies: cited from earlier work; for enhancement of presentation by IFNγ: NIT-1 cells. The text has this:
IFNγ is well known to stimulate the immune system, increasing expression of MHC-I heavy chain, β2-microglobulin, subunits of the immunoproteasome (MECL1, LMP2, and LMP7), TAP, tapasin, the ER aminopeptidase associated with antigen processing (ERAAP) ([41]) and the tapasin-related protein (TAPBPR); it is produced as part of the immune response against viruses. ...

Setting [3] is: mCherry-SSLENFRAYV at around 10^4 MFI units.
Setting [4] is: NIT-1 cells after IFNγ treatment.

Where two headings read alike, the source gives them in different places.

In the case of “AETPDIKLF [human peptide derived from the RS5 protein, eluted from B44:02 complexes]”, the “copies eluted from B44:02 complexes” value in the test on B44:02 was “around 45,000 copies”.
As to ASIENLETM, the “E10 score (E10 Fab binding to peptide–H2Db complexes)” value (“E10 score” below) with E10 Fab turned out to be 1.8 MFI/1000. Further, on H-2Db [1], the “t1/2 (peptide half-life of pMHC complex)” value came out at 502 min and the Off-rates is 2.3e-05 s⁻¹.
As to ASIENMETM, in the test with E10 Fab, the “E10 score” value is on record as 8.9 MFI/1000. In addition, at H-2Db [1], the “t1/2 (peptide half-life of pMHC complex)” value came to 456 min and the Off-rates amounted to 2.5e-05 s⁻¹.
For the sequence ASNEAMETM, in the test on E10 Fab, the “E10 score” value came out at 8.2 MFI/1000. Besides, the “surface expression of ASN variant–H2Db” value at H-2Db [2] is reported as “unable to reach or remain at the cell surface at detectable levels”. In addition, on H-2Db [1], the “t1/2 (peptide half-life of pMHC complex)” value turned out to be 43 min and the Off-rates is 0.00027 s⁻¹.
Consider ASNENLETM, for which the “E10 score” value in the test with E10 Fab worked out at 4.1 MFI/1000. Also, at H-2Db [1], the “t1/2 (peptide half-life of pMHC complex)” value was determined as 238 min and the Off-rates worked out at 4.9e-05 s⁻¹.
Consider ASNENMETA, for which the “E10 score” value in the test on E10 Fab was 14.2 MFI/1000. In addition, the “surface expression of ASN variant–H2Db” value on H-2Db [2] is “unable to reach or remain at the cell surface at detectable levels”. Also, at H-2Db [1], the “t1/2 (peptide half-life of pMHC complex)” value was 52 min and the Off-rates came to 0.00022 s⁻¹.
Regarding ASNENMETI, the “E10 score” value with E10 Fab is listed as 13.1 MFI/1000. Moreover, at H-2Db [1], the “t1/2 (peptide half-life of pMHC complex)” value was found to be 212 min and the Off-rates is 5.4e-05 s⁻¹.
For ASNENMETL the same measures were 11.8 MFI/1000, 191 min and 6.1e-05 s⁻¹.
For ASNENMETM, in the test on E10 Fab, the “E10 score” value worked out at 11.5 MFI/1000. In addition, on H-2Db [2], the “change of surface expression of peptide–H2Db complexes with IFNγ” value is given as “increased around fourfold”. For the same sequence, at H-2Db [2] (setting [3]), the “ASNENMETM expression required to inhibit SSLENFRAYV presentation by 50%, with IFNγ compared to non-IFNγ-treated cells” value was “around ten times more”. On H-2Db [1], the “t1/2 (peptide half-life of pMHC complex)” value came to 223 min and the Off-rates came to 5.2e-05 s⁻¹.
ASNENMETV: in the test with E10 Fab, the “E10 score” value turned out to be 16.8 MFI/1000. Further, the “surface expression of ASN variant–H2Db” value at H-2Db [2] is reported as “unable to reach or remain at the cell surface at detectable levels”. For the same sequence, at H-2Db [1], the “t1/2 (peptide half-life of pMHC complex)” value is given as 132 min and the Off-rates came to 8.8e-05 s⁻¹.
The half-life is how long it takes for the measured level to halve. In the case of GGPESFYCASW, the half-life at H-2Dd is on record as 20 min.
On to SSLENFRAYV, for which, in the test on E10 Fab, the “E10 score” value amounted to 3.8 MFI/1000. For the same sequence, the “change of surface expression of peptide–H2Db complexes with IFNγ” value on H-2Db [2] was “increased around fourfold”. Moreover, the “cytoplasmic expression at which surface expression could be detected” value on H-2Db [2] (mCherry calibration beads) is on record as ~10^6 copies per cell. In addition, at H-2Db [2] (mCherry calibration beads, maximum), the “cytoplasmic expression in transfected cells” value is reported as “up to 10^8 copies per cell”. Besides, at H-2Db [2] (setting [3]), the “cell surface abundance in the absence of competitor” value is “around 4 × 10^4 complexes”. The “copies expressed at the cell surface in the absence of competition” value at H-2Db [2] (mCherry-SSLENFRAYV at around 10^4 MFI units, printed in brackets after non-IFNγ-treated cells) was 25 × 10^4 copies. For the same sequence, the “number of pMHC complexes presented on the cell surface” value is reported as “up to 80,000 pMHC complexes” at H-2Db [2] (absence of ASNENMETM competition) and ≤ 10,000 pMHC complexes on H-2Db [2] (highest level of ASNENMETM competitor). Also, at H-2Db [1], the “t1/2 (peptide half-life of pMHC complex)” value was found to be 408 min. For the same sequence, on H-2Db [1], the Off-rates worked out at 2.8e-05 s⁻¹.
Regarding SYFPEITHI, the “presentation, copies per cell” value in the test with NIT-1 insulinoma cells (setting [4]) is given as ~ 15,000 copies per cell; with NIT-1 insulinoma cells (untreated NIT-1 cells), ~ 2,000 copies per cell. For the same sequence, the “enhancement of presentation by IFNγ” value in the test on NIT-1 insulinoma cells was 7.5 fold increase.
VYLKTNVFK: the entries for the “presentation, copies per cell” value in the test on NIT-1 insulinoma cells (setting [4]) and in the test with NIT-1 insulinoma cells (untreated NIT-1 cells) were 25 copies per cell and 1 copies per cell, respectively. Also, in the test with NIT-1 insulinoma cells, the “enhancement of presentation by IFNγ” value is 25 fold increase.
